In patent US9539327B2, “Small molecule cancer treatments that cause necrosis in cancer cells but do not affect normal cells” (THE RESEARCH FOUNDATION FOR THE STATE UNIVERSITY OF NEW YORK, priority 2007, dated 2017):
Ends that are not written are not given here.

Tests used:
[1] = test system: human pancreatic cancer MIA PaCa-2 cells; experiment: Transmission electron microscopy of PNC-28-treated cells (FIG. 8); format: cell-based; conditions: treated for 10 minutes; 50 μg/ml
Procedure: FIG. 8 depicts a photograph taken during a Transmission Electron Microscopy study of human pancreatic cancer MIA PaCa-2 cells that had been treated for 10 minutes with PNC-28. […] The middle arrow depicts an area of the cell's plasma membrane that has erupted as a result of PNC-28 acting upon it. The bottom-most arrow depicts an area on the cell's plasma membrane that is discontinuous as a result of PNC-28 administration. From one or more of these areas emphasized with arrows, the cytoplasm will begin to leak from the cell, into the surrounding medium. Extrusion of much of the cells cytoplasmic content through such holes (pores) while the nuclear membrane was still intact was a frequent finding in these and other tumor cells when the incubation period with PNC-28 was extended. Magn. ×42,600.
Cells (1×10^6) were grown in 6-well dishes overnight then spent medium was removed, the cells were washed with PBS and treated at 37° C. with PNC-28 at 50 μg/ml in PBS. At different time points (5-30 min) during the PNC-28 treatment the cells were washed and fixed in 3% buffered paraformaldehyde supplemented with 0.01% glutaraldehyde for 1.5 h. After extensive washing, the cells were treated with glycine and NaBH4 as described above followed by 3 times washing in PBS. […]

[2] = test system: non-cancerous cells; experiment: Untransformed cell lines and primary human cells incubated with peptide (FIG. 5); format: cell-based; conditions: Thirty microMolar; one day up to two weeks; normal rat pancreatic acinar cells, human breast cells, primary human fibroblasts, primary human keratinocytes, umbilical cord stem cells
From the text: The experimental methods which yielded the data depicted in FIG. 5 are described in sufficient detail for those skilled in the art in the following publications: • Kanovsky, M., Raffo, A., Drew, L., Rosal, R., Do, T., Friedman, F. K., Rubinstein, P., Visser, I., Robinson, R., Brandt-Rauf, […]., Fine, R. L. and Pincus, M. R. (2001) Peptides from the Amino Terminal mdm-2 Binding Domain of p53, Designed from Conformational Analysis, Are Selectively Cytotoxic to Transformed Cells. Proc. Natl. Acad. Sci. USA 98, 12438-12443; • Do, T. N., Rosal, R. V., Drew, L., Raffo, […]., Pincus, M. R., Friedman, […]., Sidhu, G., Fine, R. L. and Brandt-Rauf, P. W. (2003) Preferential Induction of Necrosis in Human Breast Cancer Cells by a p53 Peptide Derived from the mdm-2 Binding Site. Oncogene 22, 1431-1444; and • Bowne, […]., Yadzi, E., Lou, […]., Harding, M., Bluth, M. H., Ng, M., Brandt-Rauf, […]. and Pincus, M. r. (2008) The Penetrating Sequence in the Anti-Cancer PNC-28 Peptide Causes Tumor Necrosis Rather than Apoptosis of Human Pancreatic Cancer Cells. Ann. Surg. Oncol., in press. Referring to FIG. 5, the table illustrates that the cancer treatment PNC-27, when administered to non-cancerous cells, has no effect. […]

[3] = test system: MiaPaCa-2, Hu-Melanoma cells, BMRPA1.TUC-3 cells; experiment: Dose-response cytotoxicity by LDH release, cancer cells (FIG. 13 A-C); format: cell-based; conditions: 1-500 micrograms/ml; 30 min at 37° C.; tumor cells
Procedure: (§1) FIG. 13, graphs A through D, depict the results of dose-response experiments completed on three difference cancer cell samples and one normal primary human cell line to treatment in vitro with PNC-27 (from 1-500 micrograms/ml). The cancer cell lines were human pancreatic cancer, MiaPaCa-2 (upper left, A), Hu-Melanoma cells (upper right, B), and a rodent tumor cell line, i.e., pancreatic cancer BMRPA1.TUC-3 cells (lower left, C). As controls, cells from the same cell lines were tested in parallel with a control peptide, PNC-29, over the same range of peptide concentrations. As another control, cells from primary human Ag 13145 fibroblasts (lower right, D) were treated with the same doses of PNC-27 and PNC-29, respectively.
(§2) The results are plotted along with those for PNC-29, the negative control. […] The measurements of cytotoxicity were performed by assaying for LDH in the cell supernatant.
(§3) For the dose response experiments (n=3-5), 0.1 ml of each of the cells (70,000 cells/ml of culture medium) were seeded into each of the wells of 96-well TCD (7000 cells/well) and allowed to adhere overnight. […] The results were read at OD490 nm in an ELISA plate reader within 15 min of stopping the color development in the wells. The results were calculated as advised by the manufacturers guidelines (CytoTox 96 Non-radioactive Cytotoxicity Assay, Promega), and the data were expressed in % Cytotoxicity.

[4] = test system: Cancer cells
Procedure: After the cells were treated, the cells were incubated first with the anti-p53 antibody that recognizes p53 residues 12-26. This antibody is called DO-1, and it is labeled with FITC, a green fluorescent probe. The cells were washed free of any excess antibody. Then the cells were incubated with an anti-HDM-2 antibody that was been conjugated to a red fluorescent dye. After washing the cells free of excess antibody, the cells were subjected to confocal microscopy.

[5] = test system: primary human Ag 13145 fibroblasts; experiment: Dose-response cytotoxicity by LDH release, normal fibroblasts (FIG. 13 D); format: cell-based; conditions: same dose range as applied to tumor cells (1-500 micrograms/ml); 30 min at 37° C.
Procedure: as §1, §2, §3

Compound | plasma membrane change (TEM) [1] | effect on non-cancerous cells [2] | cytotoxicity (LDH in the cell supernatant) [3] | IC50 [4] [µg/mL] | cytotoxicity (LDH in the cell supernatant) [5]
ETFSDLWKLLKKWKMRRNQFWVKVQRG (PNC-28) [p53 AA 17-26 attached to the membrane resident peptide (MRP)] | needle-shaped pore has formed in the cancer cell plasma membrane | no measurable effect |  |  | 
CC[C@H](C)[C@H](NC(=O)[C@H](CCCNC(=N)N)NC(=O)[C@H](CCCCN)NC(=O)CNC(=O)[C@@H](NC(=O)[C@H](CO)NC(=O)[C@H](Cc1ccccc1)NC(=O)[C@@H]1CCCN1C(=O)[C@@H](N)CCSC)[C@@H](C)O)C(=O)N[C@@H](CCSC)C(=O)N[C@@H](CC(C)C)C(=O)NCC(=O)N[C@@H](CCC(=O)O)C(=O)N[C@@H](CCCCN)C(=O)N[C@@H](CCCCN)C(=O)N[C@@H](Cc1c[nH]c2ccccc12)C(=O)N[C@@H](CCCCN)C(=O)N[C@@H](CCSC)C(=O)N[C@@H](CCCNC(=N)N)C(=O)N[C@@H](CCCNC(=N)N)C(=O)N[C@@H](CC(N)=O)C(=O)N[C@@H](CCC(N)=O)C(=O)N[C@@H](Cc1ccccc1)C(=O)N[C@@H](Cc1c[nH]c2ccccc12)C(=O)N[C@H](C(=O)N[C@@H](CCCCN)C(=O)N[C@H](C(=O)N[C@@H](CCC(N)=O)C(=O)N[C@@H](CCCNC(=N)N)C(=O)NCC(=O)O)C(C)C)C(C)C [PNC-29, reference compound] |  |  | absence of any effect |  | 
PPLSQETFSDLWKLLKKWKMRRNQFWVKVQRG [PNC-27] |  |  | strong dose dependency | 125 | no effect
